This is an account of results in article PMC9687610, “Adenosine-Mimicking Derivatives of 3-Aminopyrazine-2-Carboxamide: Towards Inhibitors of Prolyl-tRNA Synthetase with Antimycobacterial Activity” (Biomolecules, 2022).

SMILES strings stand for the structures. In brackets after ≈: the same amount, converted by molar mass.

Series [1] relates to Mycobacterium tuberculosis H37Ra ITM-M006710 (ATCC 9431). Description: Microplate Alamar Blue Assay (MABA), Mtb H37Ra. The series is classed as cell-based. The note with it: Mycobacterium tuberculosis, 120 h, pH 6.6, MABA, Middlebrook 7H9 broth pH 6.6, resazurin after 120 h; read-out: Mtb H37Ra MIC. Background: Alamar Blue is a resazurin reagent that responds to reducing activity.

For series [2], the system named is Mycobacterium smegmatis DSM 43465 (ATCC 607). The series can be described thus: Microplate Alamar Blue Assay (MABA), M. smegmatis. The series is classed as cell-based. The note with it: Mycolicibacterium smegmatis; MABA, resazurin after 48 h; read-out: M. smegmatis MIC.
The test system of series [3] is M. aurum DSM 43999 (ATCC 23366). The series can be described thus: Microplate Alamar Blue Assay (MABA), M. aurum. Particulars: Mycolicibacterium aurum; MABA, resazurin after 72 h; read-out: M. aurum MIC. Format: cell-based.
Series [4] has as its system Staphylococcus aureus subsp. aureus CCM 4223 (ATCC 29213). Description: Antibacterial microdilution broth (EUCAST), SA. The series is classed as cell-based. The note with it: Staphylococcus aureus; read after 24 h; read-out: SA MIC. A general note: In broth dilution the organism is exposed to a series of concentrations in liquid medium.
Series [5] has as its system Staphylococcus aureus subsp. aureus methicillin-resistant (MRSA) CCM 4750 (ATCC 43300). Description: Antibacterial microdilution broth (EUCAST), MRSA. The series is classed as cell-based. The note with it: Staphylococcus aureus; read after 24 h; read-out: MRSA MIC.
The subject of series [6] is Staphylococcus epidermidis CCM 4418 (ATCC 12228). The series can be described thus: Antibacterial microdilution broth (EUCAST), SE. The series is classed as cell-based. Particulars: read after 24 h, read-out: SE MIC.
In series [7] the test system is Enterococcus faecalis CCM 4224 (ATCC 29212). The series can be described thus: Antibacterial microdilution broth (EUCAST), EF. Format: cell-based. Particulars: Enterococcus faecalis; read after 24 h; read-out: EF MIC.
The test system of series [8] is Escherichia coli CCM 3954 (ATCC 25922). Description: Antibacterial microdilution broth (EUCAST), EC. Format: cell-based. Particulars: Escherichia coli; read after 24 h; read-out: EC MIC.
The subject of series [9] is Acinetobacter baumannii DSM 30007 (ATCC 19606). Description: Antibacterial microdilution broth (EUCAST), ACI. The series is classed as cell-based. The note with it: Acinetobacter baumannii; read after 24 h; read-out: ACI MIC.
The subject of series [10] is Pseudomonas aeruginosa CCM 3955 (ATCC 27853). Description: Antibacterial microdilution broth (EUCAST), PA. The note with it: Pseudomonas aeruginosa; read after 24 h; read-out: PA MIC. Format: cell-based.
The test system of series [11] is Candida albicans CCM 8320 (ATCC 24433). The series can be described thus: Antifungal microdilution broth (EUCAST), CA. The note with it: Candida albicans; read after 24 h; read-out: CA MIC. The series is classed as cell-based.
Series [12] has as its system Candida krusei CCM 8271 (ATCC 6258). Description: Antifungal microdilution broth (EUCAST), CK. The series is classed as cell-based. The note with it: Pichia kudriavzevii; read after 24 h; read-out: CK MIC.
For series [13], the system named is Candida parapsilosis CCM 8260 (ATCC 22019). The series can be described thus: Antifungal microdilution broth (EUCAST), CP. The series is classed as cell-based. Particulars: Lodderomyces parapsilosis; read after 24 h; read-out: CP MIC.
For series [14], the system named is Candida tropicalis CCM 8264 (ATCC 750). The series can be described thus: Antifungal microdilution broth (EUCAST), CT. Format: cell-based. The note with it: Candida tropicalis; read after 24 h; read-out: CT MIC.
Series [15] deals with Aspergillus fumigatus ATCC 204305. Description: Antifungal microdilution broth (EUCAST), AF. The series is classed as cell-based. Particulars: Aspergillus fumigatus, ATCC204305; read after 24 h; read-out: AF MIC.
The subject of series [16] is Aspergillus flavus CCM 8363. The series can be described thus: Antifungal microdilution broth (EUCAST), AFla. Format: cell-based. Particulars: Aspergillus flavus, CCM8363; read after 24 h; read-out: AFla MIC.
Series [17] relates to Lichtheimia corymbifera CCM 8077. Description: Antifungal microdilution broth (EUCAST), LC. The note with it: Lichtheimia corymbifera, CCM8077; read after 24 h; read-out: LC MIC. Format: cell-based.
Series [18] relates to Trichophyton interdigitale CCM 8377 (ATCC 9533). Description: Antifungal microdilution broth (EUCAST), TI. The series is classed as cell-based. Particulars: Trichophyton interdigitale, 72 h, read-out: TI MIC.
Series [19] deals with Klebsiella pneumoniae CCM 4415 (ATCC 10031). Description: Antibacterial microdilution broth (EUCAST), KP. Particulars: read after 24 h.

As a reminder, the MIC is the least concentration at which growth counts as inhibited. The term melting point denotes the temperature, or range, at which the solid turns liquid. Take `COC(=O)c1nccnc1NC(=O)c1ccc(OC)cc1` [Compound 9e]: the melting point was in the range of 144.5 to 145 °C. In addition, the minimal inhibitory concentration (MIC) in [1] was no less than 500 µg/mL. Also, in [2], the minimal inhibitory concentration (MIC) is no less than 500 µg/mL. For the same compound, the MIC in series [3] was no less than 500 µg/mL. In addition, the MIC in series [4] is greater than 500 µM. Also, the minimal inhibitory concentration (MIC) in series [5] was greater than 500 µM. The minimal inhibitory concentration (MIC) in series [6] was greater than 500 µM. For the same compound, in series [7], the MIC was greater than 500 µM. Further, in series [8], the MIC is greater than 500 µM. In addition, the MIC in [9] is greater than 500 µM. Further, the MIC in series [10] was greater than 500 µM. Moreover, the MIC in [11] was greater than 500 µM. Further, the MIC in series [12] is greater than 500 µM. Besides, the minimal inhibitory concentration (MIC) in [13] was greater than 500 µM. Besides, the MIC in [14] was greater than 500 µM. In series [15], the MIC is greater than 500 µM. Further, the MIC in series [16] is greater than 500 µM. In series [17], the MIC was greater than 500 µM. In addition, in [18], the minimal inhibitory concentration (MIC) was greater than 500 µM. Further, in [19], the “KP MIC” value was greater than 500 µM.

Compound `COC(=O)c1nccnc1NC(=O)C1CCCCC1` [Compound 27e] gave a melting point of 106.9 to 108.3 °C. The MIC in [1] is no less than 500 µg/mL. In addition, the minimal inhibitory concentration (MIC) in series [2] came to 125 µg/mL (≈ 475 µM). Further, in series [3], the minimum inhibitory concentration (MIC) was no less than 500 µg/mL. In series [4], the MIC was greater than 500 µM. Besides, in series [5], the MIC is greater than 500 µM. Moreover, the minimal inhibitory concentration (MIC) in [6] is greater than 500 µM. Further, the minimum inhibitory concentration (MIC) in [7] is greater than 500 µM. The minimal inhibitory concentration (MIC) in [8] is greater than 500 µM. The minimum inhibitory concentration (MIC) in series [9] was greater than 500 µM. Further, in series [10], the MIC is greater than 500 µM. Moreover, in [11], the MIC is greater than 500 µM. The minimal inhibitory concentration (MIC) in series [12] was greater than 500 µM. Moreover, the minimal inhibitory concentration (MIC) in series [13] is greater than 500 µM. The MIC in series [14] was greater than 500 µM. The minimum inhibitory concentration (MIC) in series [15] was greater than 500 µM. In addition, the minimal inhibitory concentration (MIC) in series [16] is greater than 500 µM. For the same compound, the MIC in series [17] was greater than 500 µM. Further, the minimal inhibitory concentration (MIC) in series [18] is greater than 500 µM. Besides, the “KP MIC” value in [19] is on record as greater than 500 µM.

As to `COC(=O)c1nccnc1NC(=O)c1cccc(Cl)c1` [Compound 14e], the melting point was 146.3 to 147.1 °C. The minimum inhibitory concentration (MIC) in series [1] came to 250 µg/mL (≈ 857 µM). For the same compound, the MIC in series [2] worked out at 125 µg/mL (≈ 429 µM). The MIC in series [3] turned out to be 250 µg/mL (≈ 857 µM). Also, the MIC in series [4] is greater than 500 µM. Further, in series [5], the MIC was greater than 500 µM. The MIC in series [6] is greater than 500 µM. Also, the MIC in [7] is greater than 500 µM. Further, the minimal inhibitory concentration (MIC) in [8] was greater than 500 µM. Further, in [9], the minimal inhibitory concentration (MIC) is greater than 500 µM. The MIC in [10] is greater than 500 µM. In addition, in [11], the MIC is greater than 500 µM. Besides, in series [12], the MIC was greater than 500 µM. Besides, in [13], the minimal inhibitory concentration (MIC) is greater than 500 µM. Also, the minimum inhibitory concentration (MIC) in series [14] was greater than 500 µM. Moreover, in series [15], the minimal inhibitory concentration (MIC) is greater than 500 µM. For the same compound, in [16], the minimal inhibitory concentration (MIC) was greater than 500 µM. Further, the minimal inhibitory concentration (MIC) in series [17] is greater than 500 µM. In addition, in series [18], the MIC is greater than 500 µM. The “KP MIC” value in series [19] is reported as greater than 500 µM.

As for `COC(=O)c1nccnc1NC(=O)c1ccc(C)cc1` [Compound 4e], the melting point lay within 158.9 to 161.2 °C. Besides, the MIC in [1] stood at 250 µg/mL (≈ 922 µM). Besides, the MIC in series [2] worked out at 62.5 µg/mL (≈ 230 µM). The minimal inhibitory concentration (MIC) in [3] stood at 250 µg/mL (≈ 922 µM). In [4], the MIC is greater than 500 µM. Moreover, the MIC in series [5] is greater than 500 µM. For the same compound, in series [6], the minimal inhibitory concentration (MIC) was greater than 500 µM. Further, the MIC in series [7] was greater than 500 µM. The MIC in [8] is greater than 500 µM. Also, the MIC in series [9] is greater than 500 µM. The minimum inhibitory concentration (MIC) in series [10] was greater than 500 µM. Further, the minimal inhibitory concentration (MIC) in series [11] was greater than 500 µM. Also, the minimum inhibitory concentration (MIC) in series [12] is greater than 500 µM. In addition, the minimal inhibitory concentration (MIC) in series [13] was greater than 500 µM. For the same compound, the MIC in [14] is greater than 500 µM. Moreover, the MIC in series [15] was greater than 500 µM. Moreover, the MIC in [16] is greater than 500 µM. Moreover, the MIC in series [17] is greater than 500 µM. In addition, in series [18], the MIC is greater than 500 µM. Besides, the “KP MIC” value in series [19] was greater than 500 µM.
